Results taken from patent US8633243B2, “Forms of CDDO methyl ester” (priority 2007, dated 2014).
Converted amounts (≈) assume the structure as drawn. Where two headings read alike, the source gives them in different places.

Tests used:
[1] = tested on: 4T1 Syngeneic Breast Cancer; conditions: i.v., cited from earlier work
[2] = tested on: DU-145 Prostate Cancer Xenograft; test: DU-145 Prostate Cancer Xenograft; conditions: p.o.
[3] = Approximate solubility, solvent addition method; assay type: physicochemical; conditions: thermodynamic from solid, room temperature
Method: A weighed sample was treated with aliquots of the test solvent at room temperature. Complete dissolution of the test material was determined by visual inspection. Solubility was estimated based on the total solvent used to provide complete dissolution. The actual solubility may be greater than the value calculated because of the use of solvent aliquots that were too large or due to a slow rate of dissolution. […] If complete dissolution was achieved as a result of only one aliquot addition, the solubility is expressed as “greater than.” Approximate solubilities were determined in various solvents at room temperature, with the results as provided in Table 2.

[4] = tested on: L3.6PL Pancreatic Cancer Xenograft; test: L3.6PL Pancreatic Cancer Xenograft; conditions: i.v.
[5] = tested on: MCF-7/Her-2 Breast Cancer Xenograft; conditions: i.v.; doses at or below the MTD; Konopleva et al. 2006; cited from earlier work
[6] = tested on: NCI-60 tumor cell line panel; assay type: cell-based; conditions: average over panel
[7] = Phase I trial, serum creatinine; conditions: day 21
[8] = tested on: MMP-9, TNFα, IL-8, and VEGF; test: Phase I trial, circulating inflammatory cytokines; assay type: in vivo, human
Method: Based on the known anti-inflammatory properties of CDDO-Me, circulating inflammatory cytokines were evaluated in patients in the Phase I trial. At doses as low as 5 mg/day, there was a reduction of several circulating pro-inflammatory cytokines and chemokines including MMP-9, TNFα, IL-8, and VEGF.

[9] = tested on: NQO1 (NAD(P)H:quinone oxidoreductase); test: Phase I trial, phase 2 gene products in peripheral blood mononuclear cells; assay type: in vivo, human; conditions: doses of 10 mg/day and above
From the text: Additionally, phase 2 gene products, which include antioxidant and detoxification enzymes, have been monitored in peripheral blood mononuclear cells of patients in the Phase I study.

[10] = tested on: COX-2, iNOS, phosphorylated STAT3 (pSTAT3); test: Phase I trial, tumor biopsy data
[11] = tested on: NCI-H460 Lung Cancer Xenograft; test: NCI-H460 Lung Cancer Xenograft; conditions: p.o.
[12] = tested on: advanced (metastatic) cancer; test: Phase I dose-escalation trial, safety and anti-tumor activity; assay type: in vivo, human
From the text: Both the safety and anti-tumor activity of CDDO-Me were reviewed. In addition, the biological effects of CDDO-Me were characterized. […] Several patients (approximately 75% of evaluable patients) were considered to have stable disease (based on standard radiological and clinical criteria) at the first evaluation point following completion of the second treatment cycle. […] Five patients, including patients with melanoma and renal cell cancer, continued to show stable disease, some with evidence of regression of individual tumor lesions, after four cycles of treatment. Four patients were considered to have stable disease after at least six cycles of treatment.

SMILES: COC(=O)[C@]12CCC(C)(C)C[C@H]1[C@H]1C(=O)C=C3[C@@]4(C)C=C(C#N)C(=O)C(C)(C)[C@@H]4CC[C@@]3(C)[C@]1(C)CC2 [CDDO methyl ester, methyl 2-cyano-3,12-dioxoleana-1,9(11)-dien-28-oate]
- DRUG ACTIVITY, suppression ([1]; Delayed Treatment): 67% suppression
- animals tumor-free at sacrifice ([1]; Delayed Treatment, sacrifice on Day 95): 33% of animals tumor-free at
- DRUG ACTIVITY, suppression ([1]; Early Treatment, Ling et al. 2007): 100% suppression
- animals tumor-free at sacrifice ([1]; Early Treatment, sacrifice on Day 85): All animals remained tumor-free
- DRUG ACTIVITY, TGI (Tumor Growth Inhibition) ([2]; doses at or below the MTD): 77% TGI
- TGI, multiple schedules tested ([2]; multiple schedules): 60-77%
- solubility ([3]; isopropanol/water (10:1), organic solvent or mixture, (10:1) Isopropanol/water): 4 mg/mL (≈ 7.91 mM)
- solubility ([3]; organic solvent or mixture, 1,4-Dioxane): 21 mg/mL (≈ 41.5 mM)
- solubility ([3]; organic solvent or mixture, ACN (acetonitrile)): 66 mg/mL (≈ 131 mM)
- solubility ([3]; organic solvent or mixture, Acetone): 70 mg/mL (≈ 138 mM)
- solubility ([3]; organic solvent or mixture, DCM (dichloromethane)): > 194 mg/mL
- solubility ([3]; organic solvent or mixture, EtOAc (ethyl acetate)): 36 mg/mL (≈ 71.2 mM)
- solubility ([3]; organic solvent or mixture, EtOH (ethanol)): 4 mg/mL (≈ 7.91 mM)
- solubility ([3]; organic solvent or mixture, Hexanes): < 1 mg/mL
- solubility ([3]; organic solvent or mixture, MTBE (tert-butyl methyl ether)): 4 mg/mL (≈ 7.91 mM)
- solubility ([3]; organic solvent or mixture, MeOH (methanol)): 8 mg/mL (≈ 15.8 mM)
- solubility ([3]; organic solvent or mixture, THF (tetrahydrofuran)): 97 mg/mL (≈ 192 mM)
- solubility ([3]; organic solvent or mixture, Toluene): 38 mg/mL (≈ 75.1 mM)
- solubility ([3]; Water): < 0.1 mg/mL
- comparison with Gemcitabine [4]: CDDO-Me outperformed
- DRUG ACTIVITY, TGI (Tumor Growth Inhibition) ([4]; doses at or below the MTD): 51% TGI
- DRUG ACTIVITY, regression [5]: 15% regression
- IC50 [6]: ~35 nM
- patients with serum creatinine significantly lower than pre-treatment baseline [7]: more than 80%
- circulating TNFα ([8]; 3 patients with elevated baseline TNF levels, 10, 20 and 40 mg per day): reduced substantially or to below detectable limits
- circulating pro-inflammatory cytokines and chemokines including MMP-9, TNFα, IL-8, and VEGF ([8]; doses as low as 5 mg/day): reduction
- NQO1 in peripheral blood mononuclear cells [9]: Significant induction
- tumor tissue levels of COX-2, iNOS and pSTAT3 ([10]; biopsies of several patients after two cycles): pronounced reductions
- tumor cell death in biopsy ([10]; several patients, after two cycles): pronounced degree of tumor cell death
- comparison with radiation [11]: Me as effective as radiation
- DRUG ACTIVITY, TGI (Tumor Growth Inhibition) ([11]; doses at or below the MTD): 78% TGI^1
- drug-related adverse events ([12]; 5 to 900 mg/day, 21 days on / 7 days rest): no significant drug-related adverse events reported
- patients considered to have stable disease ([12]; after at least six cycles of treatment): Four
- patients continuing to show stable disease ([12]; after four cycles of treatment): Five
- tolerability ([12]; capsules of micronized Form A, 5 to 900 mg/day, 21 days on / 7 days rest, 21 adult patients): very well tolerated
- evaluable patients with stable disease ([12]; first evaluation point after the second treatment cycle): approximately 75%
- new metastases ([12]; patients receiving at least 40 mg per day): No new metastases developed
